Assays:
male SD (IGS) rat = assay: Forced swim test in rats; type: in vivo; conditions: for Immobility time / Immobility time as compared with that in the vehicle treated group: forced swim; for Immobility time: 5 minutes observation on 2nd day; for Immobility time / Inhibition (%): test compound orally 5 mL/kg (desipramine intraperitoneally 2 mL/kg) after 1st examination and 1 hour before 2nd, twelve animals per group; for Immobility time as compared with that in the vehicle treated group: rate of inhibition statistically significant; for Inhibition (%): inhibition of immobility vs. vehicle
Protocol: The seven-week old male SD (IGS) rat freely fed was solely put into the forced swimming equipment (the cylinder (Neuroscience, Inc.) of diameter of inner 19 cm, and height 40 cm, depth-sounding 17 cm, water temperature of 23±1° C.) manufactured with the transparent acrylics board, and let it swim for 15 minutes. The rat was immediately dried after the end of trial and was returned to the home cage. […] In this time, the behavior of rat is distinguished by immobile state, struggling, submerging and swimming. The immobility time, period that rats were floating on the water by taking their head outside of the water without stroking by both legs, were measured. In addition, the water in equipment was exchanged for every trial. Moreover, one trial was conducted for each animal.
The test compound was administered orally by 5 mL/kg dosage immediately after the end of the examination on the 1st, and 1 hour before the examination on the 2nd. And, the positive control compound (desipramine; […]) was similarly administered intraperitoneally by 2 mL/kg dosage immediately after the end of the examination on the 1st, and 1 hour before the examination on the 2nd.
In addition, in any case, twelve animals were used for each group.

[1] = Toxicity (LD50 by oral administration to mouse); conditions: in vivo
Protocol: The toxicity of the compounds of the present invention is very low and therefore, it is confirmed that these compounds are safe for use as medicine. For example, LD50 values of the compound A and B of the present invention by oral administration to mouse are 2000 mg/kg and over.

male ddy mice = assay: Tail-suspension test in mice; type: in vivo; conditions: for Inhibition (%): inhibition of immobility vs. vehicle; for Inhibition (%) / Immobility time: 10 mg/kg orally 1 hour before measurement, ten animals per group; for Immobility time / Immobility time as compared with that in the vehicle treated group: tail suspension; for Immobility time: immobility time for 10 minutes; for Immobility time as compared with that in the vehicle treated group: rate of inhibition statistically significant
Protocol: It was confirmed by the following experiments that the compounds of formula of (IA)-(IK) could be useful for the treatment of depression. The following paper can be referred to about a tail-suspension test and its testing system in mice. • 1) Psychopharmacology (1985) 85: 367-370 • 2) Prog. Neuro-Psychopharmacol. & Biol. Psychiat. 1987 Vol. 11, 659-671 (1) Tail-Suspension Test in Mice
The test compound (10 mg/kg animal body weight) was administered orally to male ddy mice weighing around 30 g 1 hour before the beginning of measurement. The mice were suspended by their tail on the hook of Tail Suspension TEST System (Neuroscience, Inc., Model NS-TST01-SS2) using adhesive tape. The subsequent immobility time for 10 minutes was measured. If the mice have none of administration, they get about 300 seconds as an immobility time in this experiment. Generally, the medicine having an anti-depressive action shortens this immobility time.
In addition, in any case, ten animals were used for each group.

| SMILES | Immobility time (male SD (IGS) rat) [s] | Immobility time as compared with that in the vehicle treated group (male SD (IGS) rat) | Inhibition (%) (male SD (IGS) rat) | LD50 [1] [mg/kg] | Inhibition (%) (male ddy mice) | Immobility time (male ddy mice) [s] | Immobility time as compared with that in the vehicle treated group (male ddy mice) |
| --- | --- | --- | --- | --- | --- | --- | --- |
| CCCN(c1cc(C)c(C)cc1OCc1ccc(C(=O)O)cc1)S(=O)(=O)c1ccc(C)o1 [Compound H, 4-[4,5-dimethyl-2-[N-(5-methyl-2-furylsulfonyl)-N-propylamino]phenoxymethyl]benzoic acid] | 156 ± 21 | shortened | 35 ± 9 | – | – | – | – |
| Cc1ccc(S(=O)(=O)N(c2ccc(C(F)(F)F)cc2OCc2ccc(C(=O)O)cc2)C(C)C)o1 [Compound B, 4-[2-[N-isopropyl-N-(5-methyl-2-furylsulfonyl)amino]-5-trifluoromethylphenoxymethyl]benzoic acid] | 163 ± 21 | shortened | 31 ± 9 | ≥ 2000 | 35 ± 8 | 194 ± 23 | shortened |
| Cc1ccc(S(=O)(=O)N(CC(C)C)c2cc3c(cc2OCc2ccc(/C=C/C(=O)O)cc2)CCC3)o1 [Compound F, 4-[6-[N-isobutyl-N-(5-methyl-2-furylsulfonyl)amino]indan-5-yloxymethyl]cinnamic acid] | – | – | – | – | 47 ± 9 | 160 ± 26 | shortened |
| CC(C)CN(c1ccc(C(F)(F)F)cc1OCc1ccc(C=CC(=O)O)cc1)S(=O)(=O)c1ccco1 [Compound C, 4-[2-(N-isobutyl-2-furanylsulfonylamino)-5-trifluoromethylphenoxymethyl]cinnamic acid] | – | – | – | – | 23 ± 7 | 212 ± 20 | shortened |
| Cc1csc(S(=O)(=O)N(CC(C)C)c2cc3c(cc2OCc2ccc(C(=O)O)cc2)CCC3)n1 [Compound K, 4-[6-[N-isobutyl-N-(4-methyl-2-thizolylsulfonyl)amino]indan-5-yloxymethyl]benzoic acid] | 172 ± 17 | shortened | 29 ± 7 | – | – | – | – |
| CNCCCN1c2ccccc2CCc2ccccc21 [Desipramine, desipramine, reference compound] | 112 ± 15 | – | 53 ± 6 | – | – | – | – |
| Cc1ccc(S(=O)(=O)N(CC(C)C)c2cc(C)c(C)cc2OCc2ccc(C(=O)O)cc2)o1 [Compound D, 4 [2-[N-isobutyl-N-(5-methyl-2-furylsulfonyl)amino]-4,5-dimethylphenoxymethyl]benzoic acid] | – | – | – | – | 27 ± 8 | 217 ± 24 | shortened |
| Cc1ccc(C(=O)N(c2ccc(C(F)(F)F)cc2OCc2ccc(/C=C/C(=O)O)cc2)C(C)C)o1 [Compound J, 4-[5-trifluoromethyl-2-[N-(5-methyl-2-furylcarbonyl)-N-isopropylamino]phenoxymethyl]cinnamic acid] | 194 ± 16 | shortened | 20 ± 7 | – | – | – | – |
| Cc1cc(Cl)ccc1S(=O)(=O)NC[C@H]1C2CCC(CC2)[C@H]1/C=C\CCCC(=O)O [Compound A, 6-[(2S, 3S)-3-(4-chloro-2-methylphenylsulfonylaminomethyl)-bicyclo[2.2.2]octan-2-yl]-5Z-hexenoic acid] | – | – | – | – | 30 ± 7 | 202 ± 20 | shortened |
| Cc1ccc(S(=O)(=O)N(CC(C)C)c2cc(C)c(C)cc2OCc2ccc(C(=O)O)cc2C)o1 [Compound E, 3-methyl-4-[2-[N-isobutyl-N-(5-methyl-2-furylsulfonyl)amino]4,5-dimethylphenoxymethyl]benzoic acid] | – | – | – | – | 38 ± 12 | 185 ± 36 | shortened |

Source: patent US7335776B2, “Remedies for depression containing EP1 antagonist as the active ingredient” (Ono Pharmaceutical Co., Ltd., priority 2002, dated 2008)
